# From US20110040086A1, “Novel Beta-Lactam Antibiotics, Methods for Their Production, and Their Use” (DRITTE PATENTPORTFOLIO BETEILIGUNGSGESELLSCHAFT MB, priority 2007, published 2011)
# Experiments:
# [1] = tested on: Bacillus megaterium SBUG 1152; experiment: agar diffusion test (Test System 1, antimicrobial effect); assay type: cell-based
# Outline: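 B. megaterium SBUG 1152 grown overnight (17 h, 37° C., 180 rpm) and seeded at 10^6 cells per 10 ml nutrient agar. Compound at 10, 50 and 100 μg, dissolved in methanol or water, applied to paper discs. Inhibition-zone diameter (mm) read after 20 h at 37° C.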
# [2] = tested on: Staphylococcus aureus 315; experiment: agar diffusion test (Test System II, multi-resistant germs); assay type: cell-based; set-up: key: r = resistant (no detectable zone of inhibition)
# Outline: (§1)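 Stepped amounts of each substance (10, 50, 100 μg) were applied to carrier discs from methanol or water according to solubility. These were laid on Müller-Hinton agar II inoculated at McFarland 0.5, and zones of inhibition were read following overnight incubation (18-20 h) at 37 °C.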
# S. epidermidis 1068 = experiment: as above; assay type: cell-based, Staphylococcus epidermidis
# Outline: as §1
# S. epidermidis 1071 = experiment: as above; assay type: cell-based, Staphylococcus epidermidis
# Outline: as §1
# S. epidermidis 563 = experiment: as above; assay type: cell-based, Staphylococcus epidermidis
# Outline: as §1
# S. epidermidis 847 = experiment: as above; assay type: cell-based, Staphylococcus epidermidis
# Outline: as §1
# S. epidermidis 125 = experiment: as above; assay type: cell-based, Staphylococcus epidermidis
# Outline: as §1
# [3] = logP value by HPLC according to Donovan et al.; conditions: HPLC, methanol/0.1% phosphoric acid pH 2
# Outline: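 Reversed-phase HPLC at 18-24° C with a methanol/0.1% phosphoric acid pH 2 gradient, 10% to 100% methanol over 9.4 min, 1.5 mL/min. Analyte co-injected with methyl phenyl sulfonate and toluene standards. logP derived from analyte/standard retention-time relationships.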
compound,measurement,setting,value
"O=C(O)C1=C(Cl)CSC2C(NC(=O)C(NC3=C(C(=O)NCCO)C(=O)C=CC3=O)c3ccccc3)C(=O)N12 (stereo not shown) [1i, 3-chlorine-7-{2-[2-(2-hydroxyethylcarbamoyl)-3,6-dioxocyclohexa-1,4-dienylamino]-2-phenyl-acetylamino}-8-oxo-1-thia-5-azabicyclo[4.2.0]oct-3-en-4-carboxylic acid]",Diameter of zone of inhibition,[1]; Quantity n 0.029,26 mm
same,Diameter of zone of inhibition,[1]; Quantity n 0.14,32 mm
same,Diameter of zone of inhibition,[1]; Quantity n 0.29,34 mm
same,Diameter of zone of inhibition,[2]; Quantity n 0.029,r
same,Diameter of zone of inhibition,[2]; Quantity n 0.14,10 mm
same,Diameter of zone of inhibition,[2]; Quantity n 0.29,14 mm
same,Diameter of zone of inhibition,S. epidermidis 1068; Quantity n 0.029,12 mm
same,Diameter of zone of inhibition,S. epidermidis 1068; Quantity n 0.14,18 mm
same,Diameter of zone of inhibition,S. epidermidis 1068; Quantity n 0.29,22 mm
same,Diameter of zone of inhibition,S. epidermidis 1071; Quantity n 0.029,14 mm
same,Diameter of zone of inhibition,S. epidermidis 1071; Quantity n 0.14,22 mm
same,Diameter of zone of inhibition,S. epidermidis 1071; Quantity n 0.29,26 mm
same,Diameter of zone of inhibition,S. epidermidis 563; Quantity n 0.029,12 mm
same,Diameter of zone of inhibition,S. epidermidis 563; Quantity n 0.14,22 mm
same,Diameter of zone of inhibition,S. epidermidis 563; Quantity n 0.29,24 mm
same,Diameter of zone of inhibition,S. epidermidis 847; Quantity n [mol] 0.029,12 mm
same,Diameter of zone of inhibition,S. epidermidis 847; Quantity n [mol] 0.14,20 mm
same,Diameter of zone of inhibition,S. epidermidis 847; Quantity n [mol] 0.29,24 mm
same,Diameter of zone of inhibition,S. epidermidis 125; Quantity n 0.029,20 mm
same,Diameter of zone of inhibition,S. epidermidis 125; Quantity n 0.14,28 mm
same,Diameter of zone of inhibition,S. epidermidis 125; Quantity n 0.29,32 mm
same,logP value,[3],1.81
